Results taken from patent publication US5358937A, “Glycosyl phospholipid derivatives of nucleosides and their use as medicines” (priority 1989, dated 1994).
“And” between values parts separate entries of the source, which are not always exact repeats. Identical values can stand only once. Like-named read-outs stand apart in the source and are kept apart here.

Assays:
[1] = test system: HIV virus (isolate LAV1-BRU); test: inhibition of the cytopathogenic effect (CPE) of the HIV virus toward a continuous line of T4 lymphocytes by colorimetric assay with MTT; assay type: cell-based
[2] = test system: HIV virus; viral reverse transcriptase; test: inhibition of viral replication by microassay of the enzymatic activity of the viral reverse transcriptase in CEM culture supernatants; assay type: cell-based; design: unit not given here
[3] = HPLC assay of AZT in the brain of mice after oral administration; assay type: in vivo, Swiss mouse; conditions: for Phosphodiester detected by HPLC per gram of brain, mean (offset figure) / Phosphodiester detected by HPLC per gram of brain, individual value / Phosphotriester detected by HPLC per gram of brain, individual value: 25 mg/kg oral, 1 hour, CT 7625 0.64; for Phosphodiester detected by HPLC per gram of brain, mean (offset figure): AZT equivalent micromol per mouse: CT 6715 0.94, CT 6651 0.68; for Phosphodiester detected by HPLC per gram of brain, mean (offset figure) / Phosphodiester detected by HPLC per gram of brain, individual value: CT 7624 0.90; for Phosphodiester detected by HPLC per gram of brain, individual value: AZT equivalent micromol per mouse: CT 6715, CT 7626 0.94, CT 6651, CT 7627 0.68, 60 min; for Phosphodiester detected by HPLC per gram of brain, individual value / concentration at 1 h: 25 mg/kg; for Phosphotriester detected by HPLC per gram of brain, individual value: AZT equivalent micromol per mouse: CT 6651, CT 7627 0.68; for concentration at 1 h: mouse, brain, po, read-out: Phosphodiester detected by HPLC per gram of brain, individual value
Procedure: The assays are conducted on the Swiss mouse.
The compounds are dissolved in distilled water (or suspended in distilled water) before being administered by gavage; the assays are performed by administering each compound to 3 mice. The control consists of 3 mice receiving the equivalent of the vehicle, i.e. the same volume of distilled water as the treated mice. The brains are removed 1 hour after garage, homogenized in an acetonitrile-water (3/1) mixture, centrifuged and the supernatant is taken for the HPLC assay.
In a preliminary trial, favourable experimental conditions for the assays of the different compounds by HPLC are determined.
In the table which follows, each line corresponds to an assay series.

[4] = in vitro; conditions: human, cem-c113 cells
[5] = 31P-NMR study of the interactions between the phosphotriesters and model membranes (transmembrane transport)
[6] = test system: HIV virus (isolate LAV1-BRU); test: selectivity index / protection index (CD50/ED50 ratio); assay type: cell-based
From the text: Determination of the selectivity index
The higher the difference between the CD50 and the ED50, the more useful will be the product. This difference is quantified by the selectivity index (the CD50/ED50 ratio).

[7] = Human immunodeficiency virus 1, CEM-c113, read-out: ED50 (protective dose 50%), D7 of culture, CEM-C113 cells
[8] = Human immunodeficiency virus 1, CEM-c113, read-out: ED50 (protective dose 50%), D11 of culture, CEM-C113 cells
[9] = Human immunodeficiency virus 1, CEM-c113, read-out: ED50 (protective dose 50%), D19 of culture, CEM-C113 cells
[10] = Human immunodeficiency virus 1, CEM-c113, read-out: ED50 (protective dose 50%), D22 of culture, CEM-C113 cells

| SMILES | EC50 [1, 7] | EC50 [1, 8] | EC50 [1, 9] | EC50 [1, 10] | reverse transcriptase activity in culture supernatant ([2]; 0.2 uM, D7) | reverse transcriptase activity in culture supernatant ([2]; 0.2 uM, D11) | reverse transcriptase activity in culture supernatant ([2]; 0.2 uM, D18) | reverse transcriptase activity in culture supernatant ([2]; 0.2 uM, D19) | reverse transcriptase activity in culture supernatant ([2]; 0.2 uM, D22) | reverse transcriptase activity in culture supernatant ([2]; 0.2 uM, D26) | reverse transcriptase activity in culture supernatant ([2]; 1 uM, D7) | reverse transcriptase activity in culture supernatant ([2]; 1 uM, D11) | reverse transcriptase activity in culture supernatant ([2]; 1 uM, D18) | reverse transcriptase activity in culture supernatant ([2]; 1 uM, D19) | reverse transcriptase activity in culture supernatant ([2]; 1 uM, D22) | reverse transcriptase activity in culture supernatant ([2]; 1 uM, D26) | CC50 at 168 h [4] | CC50 at 264 h [4] | CC50 at 456 h [4] | CC50 at 528 h [4] | further results |
| --- | --- | --- | --- | --- | --- | --- | --- | --- | --- | --- | --- | --- | --- | --- | --- | --- | --- | --- | --- | --- | --- |
| Cc1cn([C@H]2C[C@H](N=[N+]=[N-])[C@@H](COP(=O)(O)OCCO[C@H]3O[C@H](CO)[C@@H](O)[C@H](O)[C@@H]3O)O2)c(=O)[nH]c1=O [CT 7624, 1ethoxy D-mannosyl 5'-(3'-azido) thymidinyl phosphate] | < 0.2 µM | < 0.2 µM | < 0.2 µM | 0.8 µM | 4400 | 2800 | 2600 | 24000 | 27000 | 70000 | 2800 | 1900 | 2200 | 12000 | 26000 | 55000 | 25 µM | > 25 µM | > 25 µM | > 25 µM | reverse transcriptase activity in culture supernatant ([2]; 5 uM, D7): 1670; reverse transcriptase activity in culture supernatant ([2]; 5 uM, D11): 1003; reverse transcriptase activity in culture supernatant ([2]; 5 uM, D18): 852; reverse transcriptase activity in culture supernatant ([2]; 5 uM, D19): 2700; reverse transcriptase activity in culture supernatant ([2]; 5 uM, D22): 5500; reverse transcriptase activity in culture supernatant ([2]; 5 uM, D26): 42000; reverse transcriptase activity in culture supernatant ([2]; 25 uM, D7): 1204; reverse transcriptase activity in culture supernatant ([2]; 25 uM, D11): 372; reverse transcriptase activity in culture supernatant ([2]; 25 uM, D18): 304; reverse transcriptase activity in culture supernatant ([2]; 25 uM, D19): 2100; reverse transcriptase activity in culture supernatant ([2]; 25 uM, D22): 500; reverse transcriptase activity in culture supernatant ([2]; 25 uM, D26): 1700; Phosphodiester detected by HPLC per gram of brain, mean (offset figure) [3]: 2.31 µg; Phosphodiester detected by HPLC per gram of brain, individual value [3]: 0.92 µg and 3.70 µg |
| CCCCCCCCCCCCCCCCOP(=O)(OCCO[C@H]1O[C@H](CO)[C@@H](O)[C@H](O)[C@@H]1O)OC[C@H]1O[C@@H](n2cc(C)c(=O)[nH]c2=O)C[C@@H]1N=[N+]=[N-] (stereo partly drawn) [CT 7625, 1-ethoxy D-mannosyl hexadecyl 5'-(3'-azido) thymidinyl phosphate] | < 0.2 µM | 1 µM | > 1 µM | > 1 µM | 3900 | 2900 | 2400 | 25000 | 52000 | 61000 | 6000 | 6000 | 5500 | 47000 | 48000 | 64000 | 20 µM | 28 µM | 3.4 µM | 24 µM | Phosphotriester detected by HPLC per gram of brain, individual value [3]: 0 µg; Phosphodiester detected by HPLC per gram of brain, mean (offset figure) [3]: 2.34 µg; Phosphodiester detected by HPLC per gram of brain, individual value [3]: 1.17 µg and 3.51 µg; interaction with / location in unilamellar vesicles (in words) [5]: found in the intravesicular aqueous phase |
| CCCCCCCCCCCCCCCCOP(=O)(OC[C@H]1OC(O)[C@@H](O)[C@@H](O)[C@@H]1O)OC[C@H]1O[C@@H](n2cc(C)c(=O)[nH]c2=O)C[C@@H]1N=[N+]=[N-] (stereo partly drawn) [CT 7627, 6-D-mannosyl hexadecyl 5'-(3'-azido)-thymidinyl phosphate] | < 0.2 µM | 0.3 µM | 0.5 µM | 0.4 µM | 4000 | 4700 | 1700 | 11000 | 24000 | 73000 | 2000 | 1100 | 500 | 1400 | 3900 | 20000 | 2.6 µM | 2.6 µM | 2.5 µM | 25 µM | PROTECTION INDICES (P.I.), CD50/ED50 [6]: > 13; Phosphotriester detected by HPLC per gram of brain, individual value [3]: 0 µg; concentration at 1 h [3]: 2050 ng/g; interaction with / location in unilamellar vesicles (in words) [5]: interacts only with the external lipid layer of the unilamellar vesicles |
| Nc1ccn([C@H]2CC[C@@H](CO)O2)c(=O)n1 [ddC, dideoxycytidine, reference compound] | < 0.2 µM |  |  |  |  |  |  |  |  |  |  |  |  |  |  |  | 7 µM | 0.4 µM | < 0.2 µM | < 0.2 µM | PROTECTION INDICES (P.I.), CD50/ED50 ([6]; D7): > 35 |
| Cc1cn([C@H]2C[C@H](N=[N+]=[N-])[C@@H](COP(=O)(O)OC[C@H]3OC(O)[C@@H](O)[C@@H](O)[C@@H]3O)O2)c(=O)[nH]c1=O (stereo partly drawn) [CT 7626, 6-D-mannosyl-5'(3'-azido) thymidinyl phosphate] | < 0.2 µM | 0.2 µM | 0.2 µM | 0.6 µM | 3400 | 3000 | 1700 | 12000 | 27000 | 85000 | 2700 | 1300 | 1200 | 5000 | 15000 | 50000 | > 25 µM | > 25 µM | 24 µM | 24 µM | reverse transcriptase activity in culture supernatant ([2]; 5 uM, D7): 1500; reverse transcriptase activity in culture supernatant ([2]; 5 uM, D11): 1000; reverse transcriptase activity in culture supernatant ([2]; 5 uM, D18): 1300; reverse transcriptase activity in culture supernatant ([2]; 5 uM, D19): 8000; reverse transcriptase activity in culture supernatant ([2]; 5 uM, D22): 12000; reverse transcriptase activity in culture supernatant ([2]; 5 uM, D26): 100000; reverse transcriptase activity in culture supernatant ([2]; 25 uM, D7): 1100; reverse transcriptase activity in culture supernatant ([2]; 25 uM, D11): 700; reverse transcriptase activity in culture supernatant ([2]; 25 uM, D18): 900; reverse transcriptase activity in culture supernatant ([2]; 25 uM, D19): 2200; reverse transcriptase activity in culture supernatant ([2]; 25 uM, D22): 900; reverse transcriptase activity in culture supernatant ([2]; 25 uM, D26): 900; concentration at 1 h [3]: 2050 ng/g |
| Cc1cn([C@H]2CC[C@@H](CO)O2)c(=O)[nH]c1=O [ddT, 2', 3'-dideoxy thymidine, reference compound] | < 0.2 µM | 0.7 µM | 0.8 µM | > 25 µM |  |  |  |  |  |  | 3000 | 1500 | 750 | 1200 | 350 | 600 | > 25 µM | < 25 µM | > 25 µM | > 25 µM | reverse transcriptase activity in culture supernatant ([2]; 5 uM, D7): 5000; reverse transcriptase activity in culture supernatant ([2]; 5 uM, D11): 2000; reverse transcriptase activity in culture supernatant ([2]; 5 uM, D18): 1400; reverse transcriptase activity in culture supernatant ([2]; 5 uM, D19): 5000; reverse transcriptase activity in culture supernatant ([2]; 5 uM, D22): 2100; reverse transcriptase activity in culture supernatant ([2]; 5 uM, D26): 5000; reverse transcriptase activity in culture supernatant ([2]; 25 uM, D7): 2500; reverse transcriptase activity in culture supernatant ([2]; 25 uM, D11): 1000; reverse transcriptase activity in culture supernatant ([2]; 25 uM, D18): 800; reverse transcriptase activity in culture supernatant ([2]; 25 uM, D19): 7000; reverse transcriptase activity in culture supernatant ([2]; 25 uM, D22): 4000; reverse transcriptase activity in culture supernatant ([2]; 25 uM, D26): 5000 |
